Measured values reported in patent US20250134855A1, “CO[…] AND METHODS OF USING SAME” (LYKOS THERAPEUTICS, INC., priority 2022, published 2025).

Experiments:
[1] = system: participants with PTSD, eating disorder symptoms; experiment: EAT-26 eating disorder psychopathology before and after MDMA-AT (Phase 3 trial NCT03537014); format: in vivo, human
From the text: The Eating Attitudes Test (EAT or EAT-26) is a standardized self-reported questionnaire of symptoms and concerns characteristic of eating disorders. The EAT-26 uses a six-point scale based on how often the individual engages in specific behaviors. The questions can be answered: Always, Usually, Often, Sometimes, Rarely, and Never. Completing the EAT-26 yields a “referral index” based on three criteria: 1) the total score based on the answers to the EAT-26 questions; 2) answers to the behavioral questions related to eating symptoms and weight loss, and 3) the individual's body mass index (BMI) calculated from their height and weight. In some cases, an individual can be recommended for additional care if the individual meets a “cut off” score or threshold on one or more criteria. For example, if an individual score higher than a 20, the individual should be referred to a qualified professional for potential diagnosis of an eating disorder. (See, for example, Garner, D. M., & Garfinkel, P. E. (1979). Psychological Medicine, 9, 273-279.)
Exploratory data on ED psychopathology were analyzed that were collected as part of a Phase 3 trial (trial ID: NCT03537014, which is herein incorporated by reference in its entirety), which was a double-blind randomized controlled study that compared efficacy and safety of MDMA-AT between placebo and MDMA groups for treatment of PTSD. EAT-26 was included as a pre-specified exploratory measure to assess participants' attitudes about eating and food in addition to the presence of previously undetected EDs. EAT-26 assessments were collected at baseline (visit 4) and study termination (visit 20). This self-reported questionnaire consists of 25 components, each rated on a six-point scale of 0 (Never) to 3 (Always), plus an additional component rated from 0 (Always) to 3 (Never). The […] item addresses occurrence and frequency of specific eating behaviors, such as binge eating. Scores were combined to produce a total EAT-26 score, ranging from 0 to 78, with lower values indicating fewer symptoms. Participants meeting a total cut-off score of 20 or greater are considered likely candidates for having an ED diagnosis and warrant referral to a qualified professional.
Among a total of 90 participants who were randomized and received treatment, 89 participants completed the EAT-26 assessment at baseline, and seven participants withdrew from the study and were missing follow-up data (3 MDMA, 4 placebo). A total of 82 of 90 participants (91.1%) completed both baseline and follow-up EAT-26 assessments and were included in the final analysis. This preliminary analysis of an exploratory measure included only completers of both EAT-26 scores at baseline and follow-up assessments to avoid imputation of data that would attenuate the accuracy of results. […] The baseline sample consisted of participants who were majority female (65.2%), identified as women (62.9%), non-Hispanic White or Latino (89.9%), college graduates (70.8%), and the mean (SD) age was 41.0 (12.00) years. In total, 17 participants had been prescribed sertraline, of which 8 and 9 were assigned to the MDMA and placebo treatment groups, respectively. Furthermore, 6 participants had been prescribed paroxetine, which were equally distributed between MDMA and placebo treatment groups (3 and 3, respectively). At baseline, BMI (kg/m2) scores were in the ‘normal’ range (BMI 18.5-24.9) in 56.2%, ‘overweight’ (BMI 25.0-29.9) in 28.1%, and ‘obese’ (BMI≥30) in 15.7% of participants. There were no treatment group differences in demographic variables or baseline ACE, BDI-II, CAPS-5, or lifetime C-SSRS assessments. Mean BMI (SD) was 26.0 (4.8) kg/m2 in the MDMA-AT group and 24.8 (4.2) kg/m2 in the PLAC-AT group (t=1.3, p=. 2).

[2] = molecular target: organic cation transporter (OCT1) (Homo sapiens, UniProt O15245); experiment: Transporter inhibition, OCT1; details: at supratherapeutic concentrations
OCT2 = OCT2 (Homo sapiens, UniProt O15244); experiment: Transporter inhibition, OCT2; details: at supratherapeutic concentrations
MATE1 = MATE1 (Homo sapiens, UniProt Q96FL8); experiment: Transporter inhibition, MATE1; details: at supratherapeutic concentrations
MATE1, sequence (Q96FL8 whole entry): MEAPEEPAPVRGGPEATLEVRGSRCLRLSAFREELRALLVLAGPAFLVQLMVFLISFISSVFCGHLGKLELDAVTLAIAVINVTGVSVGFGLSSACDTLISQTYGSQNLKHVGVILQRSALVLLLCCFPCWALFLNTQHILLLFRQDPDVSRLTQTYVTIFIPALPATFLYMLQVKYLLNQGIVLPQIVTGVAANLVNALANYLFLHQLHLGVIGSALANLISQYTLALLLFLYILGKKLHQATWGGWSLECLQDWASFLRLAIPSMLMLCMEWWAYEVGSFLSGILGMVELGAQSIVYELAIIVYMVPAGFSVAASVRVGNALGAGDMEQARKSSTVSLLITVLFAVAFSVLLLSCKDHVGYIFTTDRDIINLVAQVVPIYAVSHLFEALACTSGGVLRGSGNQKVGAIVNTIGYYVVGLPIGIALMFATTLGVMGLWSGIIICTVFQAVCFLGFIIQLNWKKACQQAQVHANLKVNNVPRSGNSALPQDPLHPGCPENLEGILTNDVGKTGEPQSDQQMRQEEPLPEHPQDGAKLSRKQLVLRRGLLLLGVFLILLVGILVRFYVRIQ

organic cation transporter (OCT1), sequence (O15245 whole entry): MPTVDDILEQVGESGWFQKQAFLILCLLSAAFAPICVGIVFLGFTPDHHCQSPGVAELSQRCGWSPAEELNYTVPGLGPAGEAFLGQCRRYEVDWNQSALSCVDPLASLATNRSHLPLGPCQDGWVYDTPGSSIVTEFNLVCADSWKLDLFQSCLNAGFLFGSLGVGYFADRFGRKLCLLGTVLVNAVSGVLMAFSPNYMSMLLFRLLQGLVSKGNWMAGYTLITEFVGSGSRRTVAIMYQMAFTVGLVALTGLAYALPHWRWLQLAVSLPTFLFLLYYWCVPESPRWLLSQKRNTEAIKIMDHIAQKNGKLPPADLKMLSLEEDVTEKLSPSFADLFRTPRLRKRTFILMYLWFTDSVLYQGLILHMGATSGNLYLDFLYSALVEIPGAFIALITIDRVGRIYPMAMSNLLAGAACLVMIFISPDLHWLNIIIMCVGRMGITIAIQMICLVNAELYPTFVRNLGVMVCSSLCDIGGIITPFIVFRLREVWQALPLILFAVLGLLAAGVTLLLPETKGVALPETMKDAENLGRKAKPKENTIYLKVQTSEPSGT
OCT2, sequence (O15244 whole entry): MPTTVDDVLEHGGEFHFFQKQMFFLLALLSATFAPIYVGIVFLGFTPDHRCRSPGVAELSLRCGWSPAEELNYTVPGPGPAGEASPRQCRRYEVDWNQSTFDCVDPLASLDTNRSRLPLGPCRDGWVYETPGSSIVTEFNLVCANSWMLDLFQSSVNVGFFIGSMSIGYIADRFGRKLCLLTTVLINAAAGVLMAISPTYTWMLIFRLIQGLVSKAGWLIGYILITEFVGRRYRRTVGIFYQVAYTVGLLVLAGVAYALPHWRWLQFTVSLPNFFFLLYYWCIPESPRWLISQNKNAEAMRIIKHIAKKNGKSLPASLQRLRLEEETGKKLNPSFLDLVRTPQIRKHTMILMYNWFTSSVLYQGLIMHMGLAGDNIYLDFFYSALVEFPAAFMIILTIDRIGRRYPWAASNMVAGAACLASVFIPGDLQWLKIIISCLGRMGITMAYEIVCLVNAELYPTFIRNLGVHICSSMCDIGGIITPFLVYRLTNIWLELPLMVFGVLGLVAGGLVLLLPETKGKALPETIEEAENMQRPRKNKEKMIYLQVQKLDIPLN

CNC(C)Cc1ccc2c(c1)OCO2 (stereo not drawn) [MDMA, 3,4-methylenedioxymethamphetamine]
Cohen's d, EAT-26 reduction MDMA vs placebo ([1]; baseline EAT-26≥11 subset): 0.52
RCI score, EAT-26 ([1]; baseline EAT-26≥11 subset): −2.16
within-subject mean (SD) reduction in EAT-26 scores ([1]; baseline EAT-26≥11 subset): −9.58 (7.59)
RCI score, EAT-26 ([1]; baseline EAT-26≥20 subset): −2.83
within-subject mean reduction in EAT-26 scores ([1]; baseline EAT-26≥20 subset): −14.08
participants with EAT-26≥20 at follow-up ([1]; reduced from 5 (11.90%) at baseline): 2.38%
within-subject mean (SD) reduction in EAT-26 scores, baseline to follow-up ([1]; total sample): −3.04 (6.24)
Hedge's g, EAT-26 change scores MDMA vs placebo ([1]; total sample, adjusted for baseline): 0.33
RCI score, EAT-26 ([1]; women with EAT-26≥11): −2.90
Hedge's g, EAT-26 change scores MDMA vs. placebo ([1]; women with baseline EAT-26≥11): 0.63
Hedge's g, EAT-26 change scores MDMA vs. placebo ([1]; women with baseline EAT-26≥20): 0.60
RCI, change in EAT-26 score ([1]; women with baseline EAT-26≥20, group not given): −18.80
inhibition of OCT1 [2]: inhibits
inhibition of OCT2 (OCT2): inhibits
inhibition of MATE1 (MATE1): inhibits
